“Also recorded” adds a separate entry of the source. Where two headings read alike, the source gives them in different places.
Assays:
[1] = tested on: Jurkat T cells; assay: Necrosis (CICD) of Jurkat T cells induced by Fas ligand, cycloheximide and zVAD, ATP assay; format: cell-based, human; details: FasL/CHX/zVAD
Protocol: Jurkat cells were treated with 5 ng/ml of FasL without (A) or with cyclohexamide (CHX) (B) to induce apoptosis, or 5 ng/ml FasL, 1 μg/ml of CHX and 100 μM of zVAD.fmk to induce CICD (B). […] Cell viability was determined after 24 hours of incubation with indicated reagents using CellTiter-Glo ATP assay. The values represent viability relative to the control Jurkat cells without the treatment of FasL, which was set as 100% viability.
FIG. 34A is a graph showing the results of treating Jurkat T cells with Fas ligand (5 ng/ml), cyclohexamide (1 μg/ml) and zVAD (100 μM) in the presence of the indicated amounts of anti-necrotic compounds (4) and (5). Viability was determined 36 hours later using an ATP assay. The viability values are relative to the samples lacking Fas ligand, which were used as 100% viability controls. FIG. 34B is a graph as in FIG. 34A, in which the anti-necrotic compounds are (19) and (20).
Compounds were also tested in another necrosis assay utilizing human Jurkat T cells, Fas ligand to induce cell death, and zVAD to inhibit the apoptosis pathway. After 36 hours, cell viability was measure by the commercial CellTiter ATP cell viability assay (Promega).

[2] = tested on: FADD-deficient Jurkat T cells treated with TNF-α; assay: Inhibition of necroptosis (CICD) in FADD-deficient Jurkat T cells treated with TNF-α, ATP-based viability; format: cell-based, human
[3] = tested on: FADD deficient Jurkat cells; details: compound alone
[4] = tested on: U937 cells; assay: Oxidative stress (menadione) induced death of U937 cells, ATP assay; format: cell-based, human; details: 250 μM menadione, 24 hours
Protocol: Viability of TNFα/zVAD/DMSO or manadione/DMSO blank treated cells is also shown (- - -). Viability was determined using ATP-Lite-M assay (Packard). Numbers represent percentages of live cells. The values were normalized relative to the zVAD or DMSO treated controls, which were set as 100% viability.
In this and subsequent panels, cell viability was determined via ATP assay. Numbers represent viability normalized to that of the DMSO-treated cells in the absence of TNFα and menadione. Throughout, error bars represent standard deviations. […] Representative images are shown. […] Protein lysates were subjected to western blotting with antibodies to LC3 and to tubulin. The ratio of LC3-II to tubulin signals was calculated (“Ratio”) and normalized to the value in the control sample. […] Alternatively, cells were treated with 2 μM rapamycin. […] Numbers represent viability normalized to that of the compound-treated cells in the absence of TNFα. In FIG. 28H, expression of beclin-1 (“Bec”) and tubulin (“Tub”) in the stable populations of cells in FIG. 28G was analyzed by western blotting.

[5] = Homo sapiens, Jurkat, 24 h, read-out: EC50 (μM) for inhibition of necroptosis

For COc1ccc([C@H]2[C@@H]3CCc4ccc(OC)cc4C3=NN2C(C)=O)cc1 (relative stereo) [Compound 142, (3R,3aS)-rel-2-acetyl-3,3a,4,5-tetrahydro-3-(4-methoxyphenyl)-8-methoxy-2H-benz[g]indazole], the “inhibition of CICD/necrosis of Jurkat cells, in words” value [1] was “only the cis isomers (4) (FIG. 34A) and (19) (FIG. 34B) were found to efficiently inhibit necrosis”.

In the case of COc1ccc2c(c1)C1=NN(C(C)=O)[C@@H](c3ccc(F)cc3)[C@@H]1CC2 (relative stereo) [Compound 160, (3R,3aS)-rel-2-acetyl-3,3a,4,5-tetrahydro-3-(4-fluorophenyl)-8-methoxy-2H-benz[g]indazole], the EC50 [2, 5] is reported as 3.7 ± 0.75 µM and the “inhibition of CICD/necrosis of Jurkat cells, in words” value [1] is reported as “only the cis isomers (4) (FIG. 34A) and (19) (FIG. 34B) were found to efficiently inhibit necrosis”.

With COc1ccc2c(c1)C1=NN(C(C)=O)[C@@H](c3ccc(F)cc3)[C@H]1CC2 (relative stereo) [Compound 161, (3R,3aR)-rel-2-acetyl-3,3a,4,5-tetrahydro-3-(4-fluorophenyl)-8-methoxy-2H-benz[g]indazole] the EC50 [2, 5] was 0.96 ± 0.085 µM and the “inhibition of CICD/necrosis of Jurkat cells, in words” value [1] was “efficiently inhibit necrosis and result in high cell viability”.

Compound COc1cc2c(cc1OC)C1=NN(C(C)=O)[C@@H](c3ccc(F)cc3)[C@H]1CC2 (relative stereo) [Compound 164, (3R,3aR)-rel-2-acetyl-3,3a,4,5-tetrahydro-3-(4-fluorophenyl)-7,8-dimethoxy-2H-benz[g]indazole] has an EC50 [2, 5] greater than 100 µM and a melting point of 189 to 193 °C.

CC(=O)N1N=C2c3ccccc3CC[C@@H]2[C@@H]1c1ccc(F)cc1 (relative stereo) [Compound 165, (3R,3aR)-rel-2-acetyl-3,3a,4,5-tetrahydro-3-(4-fluorophenyl)-2H-benz[g]indazole] gave an EC50 [2, 5] of 5.4 ± 1.1 µM and a melting point of 166 to 168 °C.

COc1ccc2c(c1)C1=NN(C(C)=O)[C@@H](c3cccc(F)c3)[C@H]1CC2 (relative stereo) [Compound 166, (3R,3aR)-rel-2-acetyl-3,3a,4,5-tetrahydro-3-(3-fluorophenyl)-8-methoxy-2H-benz[g]indazole] gave an EC50 [2, 5] of 0.68 ± 0.009 µM and a melting point of 176 to 177 °C.

COc1ccc([C@H]2[C@H]3CCc4ccccc4C3=NN2C(C)=O)cc1 (relative stereo) [Compound 167, (3R,3aR)-rel-2-acetyl-3,3a,4,5-tetrahydro-3-(4-methoxyphenyl)-2H-benz[g]indazole] gave an EC50 [2, 5] of 0.84 ± 0.32 µM and a melting point of 257 to 260 °C.

Work on COc1ccc2c(c1)C1=NN(C(C)=O)[C@@H](c3ccc4c(c3)OCO4)[C@H]1CC2 (relative stereo) [Compound 177, (3R,3aR)-rel-2-acetyl-3,3a,4,5-tetrahydro-3-(3,4-methylenedioxyphenyl)-8-methoxy-2H-benz[g]indazole] yielded an EC50 [2, 5] of 2.6 ± 1.3 µM and a melting point of 206 to 209 °C.

Work on COc1ccc2c(c1)C1=NN(C(C)=O)[C@@H](c3ccc4c(c3)OCCO4)[C@H]1CC2 (relative stereo) [Compound 178, (3R,3aR)-rel-2-acetyl-3,3a,4,5-tetrahydro-3-(3,4-ethylenedioxyphenyl)-8-methoxy-2H-benz[g]indazole] yielded an EC50 [2, 5] of 2.1 ± 0.65 µM and a melting point of 189 to 193 °C.

CC(=O)N1N=C2c3cc(C)ccc3OC[C@H]2[C@@H]1c1ccc(F)cc1 (relative stereo) [Compound 184, (3R,3aS)-rel-2-acetyl-2,3,3a,4-tetrahydro-3-(4-fluorophenyl)-8-methyl-[1]benzopyrano[4,3-c]pyrazole] showed an EC50 [2, 5] greater than 100 µM and a melting point of 218 to 220 °C.

CC(=O)N1N=C2c3cc(C)ccc3OC[C@@H]2[C@@H]1c1ccc(F)cc1 (relative stereo) [Compound 185, (3R,3aR)-rel-2-acetyl-2,3,3a,4-tetrahydro-3-(4-fluorophenyl)-8-methyl-[1]benzopyrano[4,3-c]pyrazole] showed an EC50 [2, 5] of 11.6 ± 6.1 µM and a melting point of 243 to 246 °C.

COc1ccc2c(c1)C1=NN(C(C)=O)[C@@H](c3ccc(F)cc3)[C@H]1CO2 (relative stereo) [Compound 186, (3R,3aR)-rel-2-acetyl-2,3,3a,4-tetrahydro-3-(4-fluorophenyl)-8-methoxy-[1]benzopyrano[4,3-c]pyrazole] showed an EC50 [2, 5] of 4.8 ± 1.3 µM and a melting point of 245 °C.

Work on COc1ccc([C@H]2[C@@H]3CCc4ccccc4C3=NN2C(C)=O)cc1 (relative stereo) [Compound 201, (3R,3aS)-rel-2-acetyl-3,3a,4,5-tetrahydro-3-(4-methoxyphenyl)-2H-benz[g]indazole] yielded a melting point of 260 to 262 °C.

In the case of COc1ccc2c(c1)C1=NN(C(C)=O)[C@@H](c3ccc4c(c3)OCO4)[C@@H]1CC2 (relative stereo) [Compound 205, (3R,3aS)-rel-2-acetyl-3,3a,4,5-tetrahydro-3-(3,4-methylenedioxyphenyl)-8-methoxy-2H-benz[g]indazole], the melting point is reported as 165 to 169 °C.

With COc1ccc2c(c1)C1=NN(C(C)=O)[C@@H](c3ccc4c(c3)OCCO4)[C@@H]1CC2 (relative stereo) [Compound 206, (3R,3aS)-rel-2-acetyl-3,3a,4,5-tetrahydro-3-(3,4-ethylenedioxyphenyl)-8-methoxy-2H-benz[g]indazole] the melting point was 194 to 197 °C.

For COc1ccc2c(c1)C1=NN(C(C)=O)[C@@H](c3ccc(F)cc3)[C@@H]1CO2 (relative stereo) [Compound 211, (3R,3aS)-rel-2-acetyl-2,3,3a,4-tetrahydro-3-(4-fluorophenyl)-8-methoxy-[1]benzopyrano[4,3-c]pyrazole], the melting point was 174 to 176 °C.

With O=c1[nH]c2ccccc2c2ccccc12 [6(5H)-Phenanthridione, reference compound] the “inhibition of CICD/necrosis of Jurkat cells, in words” value [1] was “failed to inhibit CICD of Jurkat cells”.

For CN1C(=O)NC(Cc2c[nH]c3c(Cl)cccc23)C1=O (stereo not drawn) [7-Cl—O-Nec-1], the “LD50 (nonspecific toxicity)” value [3] was greater than 1 mM, the “antinecroptotic (anti-CICD) activity, in words” value ([2]; FADD-deficient Jurkat cells, TNFα) was “equally potent anti-CICD activity; also recorded: possessing antinecroptotic activity in vitro similar to that of 7-Cl-Nec-1” and the EC50 ([2]; Jurkat FADD deficient cells treated with TNFα, read-out: EC50) was 0.206 ± 0.033 µM.

In the case of O=C1NCCc2c(OCCCCN3CCCCC3)cccc21 [DPQ, 3,4-Dihydro-5[4(1-piperindinyl)butoxy]-1(2H)-isoquinoline, reference compound], the “inhibition of CICD/necrosis of Jurkat cells, in words” value [1] is reported as “failed to inhibit CICD of Jurkat cells”.

For CC(=O)N[C@@H](CS)C(=O)O [N-acetyl-cysteine, reference compound], the “protection from menadione induced cell death, in words” value (“protection” for short) [4] was “provided protection against menadione”.

In the case of catalase [reference compound], the “protection” value [4] is reported as “provided protection against menadione”.

For “superoxide dismutase [reference compound]”, the “protection” value [4] was “provided protection against menadione”.

In the case of vitamin E [reference compound], the “protection” value [4] is reported as “provided protection against menadione”.

Source: patent US20130158024A1, “TRICYCLIC NECROSTATIN COMPOUNDS” (priority 2005, published 2013)
